Columns and labels:
Assay in all cases: Growth in liquid media in presence of test compound
Assay type in all cases: cell-based
[1] = system: Candida albicans (ATCC 90028)
Excerpt: (§1) Test organisms used were the bacterial strains Escherichia coli (ATCC 25922), Pseudomonas aeruginosa (ATCC 27853), Staphylococcus aureus (ATCC 25923), Streptococcus pyogenes (ATCC 19615), and Mycobacterium tuberculosis (H37Rv), and the yeast strain Candida albicans (ATCC 90028).
(§2) The liquid media used for growth were Luria-Bertani (Becton Dickinson, Sparks, Md.) and Mueller-Hinton (bio-Merieux, Paris, France) broths, but with Saburo medium for Candida and Middlebrook 7H9 medium (Difco) for mycobacteria.
(§3) The strains were grown at 37° C. and after suitable cell concentrations had been reached, 100 μL of each cell suspension was added to a tube with growth media and test compound. Cultivation of the bacteria was then carried out in the presence of each test compound at 37° C. and the tubes examined for visible growth. The compounds were tested at concentrations of either 500 mg/l, 50 mg/l or 5 mg/l. This assay was repeated twice.
(§4) Some compounds were only tested against some test organisms. It will be appreciated that the charge of these molecules will depend on the environment, some of the Examples are shown with a suitable counter ion, some without.

[2] = system: Streptococcus pyogenes (ATCC 19615)
Excerpt: as §1, §2, §3, §4

[3] = system: Staphylococcus aureus (ATCC 25923)
Excerpt: as §1, §2, §3, §4

[4] = system: Mycobacterium tuberculosis (H37Rv)
[5] = system: Escherichia coli (ATCC 25922)
Excerpt: as §1, §2, §3, §4

Row | SMILES | Growth in the presence of test compound, C. albicans ([1]; 5 mg/L) | Growth in the presence of test compound, C. albicans ([1]; 50 mg/L) | Growth in the presence of test compound, C. albicans ([1]; 500 mg/L) | Growth in the presence of test compound, S. pyogenes ([2]; 5 mg/L) | Growth in the presence of test compound, S. pyogenes ([2]; 50 mg/L) | Growth in the presence of test compound, S. pyogenes ([2]; 500 mg/L) | Growth in the presence of test compound, S. aureus ([3]; 5 mg/L) | Growth in the presence of test compound, S. aureus ([3]; 50 mg/L) | Growth in the presence of test compound, S. aureus ([3]; 500 mg/L) | Growth in the presence of test compound, M. tuberculosis ([4]; 5 mg/L) | Growth in the presence of test compound, M. tuberculosis ([4]; 50 mg/L) | Growth in the presence of test compound, M. tuberculosis ([4]; 500 mg/L) | Growth in the presence of test compound, E. coli ([5]; 5 mg/L) | Growth in the presence of test compound, E. coli ([5]; 50 mg/L) | Growth in the presence of test compound, E. coli ([5]; 500 mg/L)
1 | C[C@H](CNC(=O)[C@@H](N)Cc1ccccc1)B1OC2CC3CC(C3(C)C)[C@@]2(C)O1 (stereo partly drawn) [Compound 17] | + | + | ± | + | + | − | + | + | − | + | + | − |  |  | 
2 | CC(N)C(=O)NC(CB1OC2CC3CC(C3(C)C)C2(C)O1)Cc1ccccc1 (stereo not drawn) [Compound 3] |  |  |  | + | + | − | + | + | − | + | − | − |  |  | 
3 | CC(N)C(=O)NC(CB1OC2CC3CC(C3(C)C)C2(C)O1)c1ccccc1 (stereo not drawn) [Compound 8] |  |  |  |  |  |  | + | + | ± | + | + | − |  |  | 
4 | N[C@@H](Cc1ccccc1)C(=O)N[C@@H](CB(O)O)Cc1ccccc1 [Compound 33] |  |  |  |  |  |  |  |  |  | ± | − | − |  |  | 
5 | CC1(C)C2CC3OB(CC(Cc4ccccc4)NC(=O)C(N)CCCNC(=N)N)OC3(C)C1C2 (stereo not drawn) [Compound 4] | + | + | − | + | + | − | + | + | − | + | − | − | + | + | −
6 | C[C@@H](B1OC2CC3CC(C3(C)C)[C@@]2(C)O1)[C@@H](Cc1ccccc1)NC(=O)[C@@H](N)Cc1ccccc1 (stereo partly drawn) [Compound 28] | + | + | ± | + | + | ± | + | + | ± | + | − | − |  |  | 
7 | CC(CB1OC2CC3CC(C3(C)C)C2(C)O1)NC(=O)C(N)CCCCN (stereo not drawn) [Compound 6] |  |  |  |  |  |  |  |  |  | + | + | ± |  |  | 
8 | CC1(C)C2CC3OB(CC(Cc4ccccc4)NC(=O)C(N)Cc4c[nH]c5ccccc45)OC3(C)C1C2 (stereo not drawn) [Compound 5] |  |  |  |  |  |  | + | + | − | + | ± | − |  |  | 
9 | C[C@H](N)C(=O)NC[C@H](Cc1ccccc1)B(O)O [Compound 40] |  |  |  |  |  |  |  |  |  | ± | ± | − |  |  | 
10 | N[C@@H](Cc1ccccc1)C(=O)NC[C@@H](CCc1ccccc1)B(O)O [Compound 39] |  |  |  |  |  |  |  |  |  | + | + | − | + | + | −
